Experimental data published in patent US20230250123A1, “GUT MICROBIOTA BIOACTIVATED PDE4 INHIBITOR PRECURSORS” (Giiant Pharma Inc., priority 2020, published 2023).

Experiments:
[1] = Bidirectional Caco-2 permeability assay; assay type: in vitro ADME; conditions: human; Caco-2, 10 µM, apical pH 6.0 / basolateral pH 7.4, average of 2 determinations
Description: In vitro glycoside prodrug permeability assessment. The permeability of the glycoside prodrugs were measured using the bidirectional Caco-2 assay. Caco-2 cells were seeded onto permeable polycarbonate supports in 12-well Costar Transwell plates and allowed to grow and differentiate for 21-25 days. On day 24, culture medium (DMEM supplemented with 10% FBS, 1% non-essential amino acids and penicillin/streptomycin) was removed from both sides of the transwell inserts and cells were rinsed with warm HBSS. […] The buffer in the donor chamber (apical side for A-to-B assay, basolateral side for B-to-A assay) was removed and replaced with the working solution (10 µM test article in transport buffer). The plates were then placed at 37° C. under light agitation. At designated time points (30, 60 and 90 min); an aliquot of transport buffer from the receiver chamber was removed and replenished with fresh transport buffer. Samples were quenched with ice-cold CH3CN containing internal standard and then centrifuged to precipitate the protein. Resulting supernatants were further diluted with 50/50 ACN/H2O (H2O only for Atenolol) and submitted for LC/MS/MS analysis. […] Atenolol and propranolol were tested as low and […] permeability references. […] The apparent permeability (Papp, measured in cm/s) of a compound is determined according to the following formula: […]
Where dQ/dt is the net rate of appearance in the receiver compartment, A is the area of the Transwell measured in cm^2 (1.12 cm^2), C0 is the initial concentration of compound added to the donor chamber and 60 is the conversion factor for the minute to second.

[2] = In vitro rate of glycoside prodrug hydrolysis in feces supernatant, rat; assay type: in vitro ADME; conditions: 100 µM, 37° C., pH 6.5, 24 hr
Description: In vitro rate of glycoside prodrugs hydrolysis. The metabolic stability of prodrug candidates to release the parent PDE4 inhibitor could be assessed in vitro according, but not restricted, to the following protocol: feces were collected overnight on a mixture of dry and wet ice in a metabolic cage. Ten volumes (v/w; 30 mL) of 100 mM phosphate buffer (pH 6.5) were added to 3 g of freshly collected rodent feces. The mixture was homogenized with a Stomacher Circulator 400 (2 × 1 min-cycles at 225 rpm). The mixture was transferred to a 50 mL tubes, centrifuged at 10 000xg for 10 min (4° C.) and the supernatant was passed through a 0.45 µm-filter. In a 96 deep-well plate, 198 µL of feces supernatant were aliquoted in 2 wells per compound. Each compound, including positive control, was tested in duplicate. Then 2 µL of 10 mM stock solution of each test compound were spiked in individual wells (duplicate) at a final concentration of 100 µM and samples were sealed and mixed 30 sec at 1000 rpm using a vortexer. Samples were incubated at 37° C. for the desired time in the Thermomixer with constant agitation (300 rpm). At desired time-point, 25 µL of reaction mixture was added to 225 µL of ice-cold quenching solution (acetonitrile + 0.1% (v/v) formic acid) to stop the bacterial enzymatic activity. The quenched incubates were mixed and centrifuged 10 min at 21 000xg at 4° C. A real t0 (no metabolism, 100% total recovery of unchanged prodrug) was generated by adding 22.5 µL of feces supernatant to 225 µL of ice-cold quenching solution (acetonitrile + 0.1% (v/v) formic acid). Then 2.5 µL of 1 mM solution of each test compounds was added, sealed, mixed thoroughly and centrifuged 10 min at 21 000xg at 4° C. All samples, including analytical standards, were analyzed by LC-MS/MS to measure the concentration of the parent PDE4 inhibitor released and the concentration of the corresponding prodrug remaining. A set criteria of 100% recovery is targeted where the summation of the % of prodrug remaining and the % of parent PDE4 inhibitor released should be 100% with an experimental error tolerance of ± 20%. When prodrugs represented by Formula (I) were incubated 24 hours under the conditions described above using mouse, rat and dog feces, the glycoside prodrugs were hydrolyzed to release the corresponding parent PDE4 inhibitor III (Table 3). As a negative control, when compound 4, 10 and 21 were incubated 24 hours under the conditions described above but in the absence of enzyme activities, using mouse feces extract supernatant inactivated by boiling the supernatant 10 minutes, 100% of the prodrugs were recovered unchanged.

Row | Papp A→B at 10 µM [1] | Prodrug Remaining @ 24 hr (%) [2] | SMILES
1 | 2.4 ×10⁻⁶ cm/s | 93% | CN(C)[C@H]1[C@H](Oc2ccc(C[C@@H](c3ccc(OC(F)F)c(OC4CC4)c3)c3cnc(C(O)(C(F)(F)F)C(F)(F)F)s3)cn2)O[C@H](CO)[C@@H](O)[C@@H]1O [Compound 27, (2R,3S,4R,5R,6S)-6-((5-((S)-2-(3-cyclopropoxy-4-(difluoromethoxy)phenyl)-2-(2-(1,1,1,3,3,3-hexafluoro-2-hydroxypropan-2-yl)thiazol-5-yl)ethyl)pyridin-2-yl)oxy)-5-(dimethylamino)-2-(hydroxymethyl)tetrahydro-2H-pyran-3,4-diol]
2 | 0.2 ×10⁻⁶ cm/s | 0.0% | CC(C)(O)c1ccc([C@@H](Cc2ccc(O[C@H]3O[C@H](CO)[C@@H](O)[C@H](O)[C@@H]3O)nc2)c2ccc(OC(F)F)c(OC3CC3)c2)cn1 [Compound 20, (2R,3S,4S,5S,6R)-2-((5-((S)-2-(3-cyclopropoxy-4-(difluoromethoxy)phenyl)-2-(6-(2-hydroxypropan-2-yl)pyridin-3-yl)ethyl)pyridin-2-yl)oxy)-6-(hydroxymethyl)tetrahydro-2H-pyran-3,4,5-triol]
3 | 0.02 ×10⁻⁶ cm/s | 0.6% | CC(C)(O)c1ccc([C@@H](Cc2ccc(O[C@@H]3O[C@H](CO)[C@@H](O[C@@H]4O[C@H](CO)[C@@H](O)[C@H](O)[C@H]4O)[C@H](O)[C@H]3O)nc2)c2ccc(OC(F)F)c(OC3CC3)c2)cn1 [Compound 31, (2S,3R,4S,5S,6R)-2-(((2R,3S,4R,5R,6S)-6-((5-((S)-2-(3-cyclopropoxy-4-(difluoromethoxy)phenyl)-2-(6-(2-hydroxypropan-2-yl)pyridin-3-yl)ethyl)pyridin-2-yl)oxy)-4,5-dihydroxy-2-(hydroxymethyl)tetrahydro-2H-pyran-3-yl)oxy)-6-(hydroxymethyl)tetrahydro-2H-pyran-3,4,5-triol]
4 | 0.1 ×10⁻⁶ cm/s | 0.0% | CC(C)(O)c1ccc([C@@H](Cc2ccc(O[C@@H]3O[C@H](CO)[C@H](O)[C@H](O)[C@H]3O)nc2)c2ccc(OC(F)F)c(OC3CC3)c2)cn1 [Compound 18, (2S,3R,4S,5R,6R)-2-((5-((S)-2-(3-cyclopropoxy-4-(difluoromethoxy)phenyl)-2-(6-(2-hydroxypropan-2-yl)pyridin-3-yl)ethyl)pyridin-2-yl)oxy)-6-(hydroxymethyl)tetrahydro-2H-pyran-3,4,5-triol]

Second part, the molecule before the results:

Row | SMILES | Papp A→B at 10 µM [1] | Prodrug Remaining @ 24 hr (%) [2]
5 | CNC(=O)[C@H]1O[C@@H](Oc2ccc(C[C@@H](c3ccc(OC(F)F)c(OC4CC4)c3)c3cnc(C(O)(C(F)(F)F)C(F)(F)F)s3)cn2)[C@H](O)[C@@H](O)[C@@H]1O [Compound 15, (2S,3S,4S,5R,6S)-methyl 6-((5-((S)-2-(3-cyclopropoxy-4-(difluoromethoxy)phenyl)-2-(2-(1,1,1,3,3,3-hexafluoro-2-hydroxypropan-2-yl)thiazol-5-yl)ethyl)pyridin-2-yl)oxy)-3,4,5-trihydroxytetrahydro-2H-pyran-2-carboxamide] | 1.5 ×10⁻⁶ cm/s | 74%
6 | CC(=O)OC[C@H]1O[C@@H](O[C@H]2[C@H](OC(C)=O)[C@@H](OC(C)=O)[C@H](Oc3ccc(C[C@H](c4ccc(C(C)(C)O)nc4)c4ccc(OC(F)F)c(OC5CC5)c4)cn3)O[C@@H]2COC(C)=O)[C@H](OC(C)=O)[C@@H](OC(C)=O)[C@@H]1OC(C)=O [Compound 30, (2R,3R,4S,5R,6S)-2-(acetoxymethyl)-6-(((2R,3R,4S,5R,6S)-4,5-diacetoxy-2-(acetoxymethyl)-6-((5-((S)-2-(3-cyclopropoxy-4-(difluoromethoxy)phenyl)-2-(6-(2-hydroxypropan-2-yl)pyridin-3-yl)ethyl)pyridin-2-yl)oxy)tetrahydro-2H-pyran-3-yl)oxy)tetrahydro-2H-pyran-3,4,5-triyl triacetate] | 0.5 ×10⁻⁶ cm/s | 10%
7 | CC(=O)OC[C@H]1O[C@H](Oc2ccc(C[C@H](c3ccc(C(C)(C)O)nc3)c3ccc(OC(F)F)c(OC4CC4)c3)cn2)[C@@H](OC(C)=O)[C@@H](OC(C)=O)[C@@H]1OC(C)=O [Compound 19, (2R,3R,4S,5S,6R)-2-(acetoxymethyl)-6-((5-((S)-2-(3-cyclopropoxy-4-(difluoromethoxy)phenyl)-2-(6-(2-hydroxypropan-2-yl)pyridin-3-yl)ethyl)pyridin-2-yl)oxy)tetrahydro-2H-pyran-3,4,5-triyl triacetate] |  | 0.7%
8 | COC(=O)[C@H]1O[C@@H](Oc2ccc(C[C@@H](c3ccc(OC(F)F)c(OC4CC4)c3)c3cnc(C(O)(C(F)(F)F)C(F)(F)F)s3)cn2)[C@H](O)[C@@H](O)[C@@H]1O [Compound 7, (2S,3S,4S,5R,6S)-methyl 6-((5-((S)-2-(3-cyclopropoxy-4-(difluoromethoxy)phenyl)-2-(2-(1,1,1,3,3,3-hexafluoro-2-hydroxypropan-2-yl)thiazol-5-yl)ethyl)pyridin-2-yl)oxy)-3,4,5-trihydroxytetrahydro-2H-pyran-2-carboxylate] | 1 ×10⁻⁶ cm/s | 35%
9 | COC(=O)[C@H]1O[C@@H](Oc2ccc(C[C@H](c3ccc(C(C)(C)O)nc3)c3ccc(OC(F)F)c(OC4CC4)c3)cn2)[C@H](OC(C)=O)[C@@H](OC(C)=O)[C@@H]1OC(C)=O [Compound 8, (2S,3R,4S,5S,6S)-2-((5-((S)-2-(3-cyclopropoxy-4-(difluoromethoxy)phenyl)-2-(6-(2-hydroxypropan-2-yl)pyridin-3-yl)ethyl)pyridin-2-yl)oxy)-6-(methoxycarbonyl)tetrahydro-2H-pyran-3,4,5-triyl triacetate] | 0.6 ×10⁻⁶ cm/s | 
10 | CC(=O)OC[C@H]1O[C@@H](Oc2ccc(C[C@H](c3ccc(C(C)(C)O)nc3)c3ccc(OC(F)F)c(OC4CC4)c3)cn2)[C@H](OC(C)=O)[C@@H](OC(C)=O)[C@@H]1OC(C)=O [Compound 3, (2R,3R,4S,5R,6S)-2-(acetoxymethyl)-6-((5-((S)-2-(3-cyclopropoxy-4-(difluoromethoxy)phenyl)-2-(6-(2-hydroxypropan-2-yl)pyridin-3-yl)ethyl)pyridin-2-yl)oxy)tetrahydro-2H-pyran-3,4,5-triyl triacetate] | 1.4 ×10⁻⁶ cm/s | 0.1%
11 | CC(=O)OC[C@H]1O[C@@H](Oc2ccc(C[C@H](c3ccc(C(C)(C)O)nc3)c3ccc(OC(F)F)c(OC4CC4)c3)cn2)[C@H](OC(C)=O)[C@@H](OC(C)=O)[C@H]1OC(C)=O [Compound 17, (2R,3S,4S,5R,6S)-2-(acetoxymethyl)-6-((5-((S)-2-(3-cyclopropoxy-4-(difluoromethoxy)phenyl)-2-(6-(2-hydroxypropan-2-yl)pyridin-3-yl)ethyl)pyridin-2-yl)oxy)tetrahydro-2H-pyran-3,4,5-triyl triacetate] |  | 0.0%
12 | COC(=O)[C@H]1O[C@@H](Oc2ccc(C[C@@H](c3ccc(OC(F)F)c(OC4CC4)c3)c3cnc(C(O)(C(F)(F)F)C(F)(F)F)s3)cn2)[C@H](OC(C)=O)[C@@H](OC(C)=O)[C@@H]1OC(C)=O [Compound 6, (2S,3R,4S,5S,6S)-2-((5-((S)-2-(3-cyclopropoxy-4-(difluoromethoxy)phenyl)-2-(2-(1,1,1,3,3,3-hexafluoro-2-hydroxypropan-2-yl)thiazol-5-yl)ethyl)pyridin-2-yl)oxy)-6-(methoxycarbonyl)tetrahydro-2H-pyran-3,4,5-triyl triacetate] |  | 23%
